Test results taken from patent US8030354B2, “Substituted biphenyl GPR40 modulators” (Amgen Inc., priority 2007, dated 2011).

What follows are compounds tested against GPR40 (Homo sapiens, UniProt O14842) (assay: Cell-based aequorin assay (CHO cells stably expressing GPR40 and aequorin)). Details: activation of human GPR40, CHO cells, 0.01% HSA.
Design: expressed in transfected cells; host or cells: CHO cells stably transfected with GPR40 and aequorin
How it was run: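 CHO cells stably co-expressing GPR40 and aequorin, loaded with coelenterazine (1 ug/mL, 2 h, room temperature) in H/HBSS with 20 mM Hepes and 0.01% fatty acid-free HSA. Serially diluted compounds added; luminescence recorded over 20 s. EC50 from dose-response of maximum relative light units.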

GPR40, sequence (O14842 whole entry): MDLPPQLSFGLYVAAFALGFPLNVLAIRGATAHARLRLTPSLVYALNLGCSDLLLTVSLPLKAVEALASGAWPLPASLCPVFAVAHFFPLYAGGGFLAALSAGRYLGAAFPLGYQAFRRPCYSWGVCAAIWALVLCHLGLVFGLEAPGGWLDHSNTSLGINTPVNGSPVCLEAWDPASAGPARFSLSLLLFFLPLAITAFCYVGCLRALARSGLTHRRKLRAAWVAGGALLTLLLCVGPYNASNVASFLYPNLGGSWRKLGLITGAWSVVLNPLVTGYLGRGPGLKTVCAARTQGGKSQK

| SMILES | EC50 [nM] |
| --- | --- |
| COc1ccc(F)c(-c2ccc(COc3cccc([C@@H](CC(=O)O)C4CC4)c3)cc2C(C2CC2)N(C)C)c1 (single isomer, unassigned) [Example 66.38, (3S)-3-Cyclopropyl-3-(3-(((2-(cyclopropyl(dimethylamino)methyl)-2′-fluoro-5′-(methyloxy)-1,1′-biphenyl-4-yl)methyl)oxy)phenyl)propanoic acid or (3R)-3-cyclopropyl-3-(3-(((2-(cyclopropyl(dimethylamino)methyl)-2′-fluoro-5′-(methyloxy)-1,1′-biphenyl-4-yl)methyl)oxy)phenyl)propanoic acid] | 1000 to 10000 |
| COc1ccc(F)c(-c2ccc(COc3cccc([C@@H](CC(=O)O)C4CC4)c3)cc2C(OC)C(C)(C)CO)c1 (single isomer, unassigned) [Example 66.41, (S)-3-Cyclopropyl-3-{3-[2′-fluoro-2-(3-hydroxy-1-methoxy-2,2-dimethyl-propyl)-5′-methoxy-biphenyl-4-ylmethoxy]-phenyl}-propionic acid or (R)-3-cyclopropyl-3-{3-[2′-fluoro-2-(3-hydroxy-1-methoxy-2,2-dimethyl-propyl)-5′-methoxy-biphenyl-4-ylmethoxy]-phenyl}-propionic acid] | 100 to 1000 |
| COc1ccc(F)c(-c2cc(F)c(COc3cccc([C@@H](CC(=O)O)C4CC4)c3)cc2[C@@H]2CCCC2(C)C)c1 (single isomer, unassigned) [Example 66.45] | 100 to 1000 |
| COc1ccc(F)c(-c2ccc(COc3cccc([C@@H](CC(=O)O)C4CC4)c3)cc2C2=CCOCC2)c1 (single isomer, unassigned) [Example 66.46, (3S)-3-Cyclopropyl-3-(3-(((2-(3,6-dihydro-2H-pyran-4-yl)-2′-fluoro-5′-(methyloxy)-1,1′-biphenyl-4-yl)methyl)oxy)phenyl)propanoic acid or (3R)-3-cyclopropyl-3-(3-(((2-(3,6-dihydro-2H-pyran-4-yl)-2′-fluoro-5′-(methyloxy)-1,1′-biphenyl-4-yl)methyl)oxy)phenyl)propanoic acid] | 1000 to 10000 |
| CC1(C)CCC[C@H]1c1cc(COc2cccc([C@@H](CC(=O)O)C3CC3)c2)ccc1-c1cccc(OC(F)F)c1 (single isomer, unassigned) [Example 66.47] | 100 to 1000 |
| CC1(C)CCC[C@@H]1c1cc(COc2cccc([C@@H](CC(=O)O)C3CC3)c2)ccc1-c1cccc(OC2CC2)c1 (single isomer, unassigned) [Example 66.48] | 100 to 1000 |
| CC1(C)CCC[C@H]1c1cc(COc2cccc([C@@H](CC(=O)O)C3CC3)c2)ccc1-c1cc(C(F)F)ccc1F (single isomer, unassigned) [Example 66.52] | 1000 to 10000 |
| CC1(C)CCC=C1c1cc(COc2cccc([C@@H](CC(=O)O)C3CC3)c2)ccc1-c1cc(C(F)(F)F)ccc1F (single isomer, unassigned) [Example 66.53, (3S)-3-Cyclopropyl-3-(3-(((2-(5,5-dimethyl-1-cyclopenten-1-yl)-2′-fluoro-5′-(trifluoromethyl)-1,1′-biphenyl-4-yl)methyl)oxy)phenyl)propanoic acid or (3R)-3-cyclopropyl-3-(3-(((2-(5,5-dimethyl-1-cyclopenten-1-yl)-2′-fluoro-5′-(trifluoromethyl)-1,1′-biphenyl-4-yl)methyl)oxy)phenyl)propanoic acid] | 1000 to 10000 |
| COc1ccc(F)c(-c2ccc(COc3cccc([C@@H](CC(=O)O)C4CC4)c3)cc2[C@H]2OCCCC2(C)C)c1 (single isomer, unassigned) [Example 66.55] | 1000 to 10000 |
| C=CC(C)(C)[C@@H](O)c1cc(COc2cccc([C@@H](CC(=O)O)C3CC3)c2)ccc1-c1cc(OC)ccc1F (single isomer, unassigned) [Example 66.60] | 1000 to 10000 |
| C=CC(C)(C)C(O)c1cc(COc2cccc(C(CC(=O)O)C3CC3)c2)ccc1-c1cc(OC)ccc1F (single isomer, unassigned) [Example 66.61] | 100 to 1000 |

More lines, now with the values ahead:

| EC50 [nM] | SMILES |
| --- | --- |
| 1000 to 10000 | COc1ccc(F)c(-c2ccc(COc3cccc([C@@H](CC(=O)O)C4CC4)c3)cc2CN2CCCCC2)c1 (single isomer, unassigned) [Example 66.64, (3S)-3-Cyclopropyl-3-(3-(((2′-fluoro-5′-(methyloxy)-2-(1-piperidinylmethyl)-1,1′-biphenyl-4-yl)methyl)oxy)phenyl)propanoic acid or (3R)-3-cyclopropyl-3-(3-(((2′-fluoro-5′-(methyloxy)-2-(1-piperidinylmethyl)-1,1′-biphenyl-4-yl)methyl)oxy)phenyl)propanoic acid] |
| 1000 to 10000 | COc1ccc(F)c(-c2ccc(COc3cccc([C@@H](CC(=O)O)C4CC4)c3)cc2CN2CCCC2)c1 (single isomer, unassigned) [Example 66.65, (3S)-3-Cyclopropyl-3-(3-(((2′-fluoro-5′-(methyloxy)-2-(1-pyrrolidinylmethyl)-1,1′-biphenyl-4-yl)methyl)oxy)phenyl)propanoic acid or (3R)-3-cyclopropyl-3-(3-(((2′-fluoro-5′-(methyloxy)-2-(1-pyrrolidinylmethyl)-1,1′-biphenyl-4-yl)methyl)oxy)phenyl)propanoic acid] |
| 1000 to 10000 | CC1(c2cccc(-c3ccc(COc4cccc(C(CC(=O)O)C5CC5)c4)cc3C3CCCC3(C)C)c2)OCCO1 (single isomer, unassigned) [Example 66.72, (S)-3-(3-((S)-3-((S)-2,2-Dimethylcyclopentyl)-4-(3-(2-methyl-1,3-dioxolan-2-yl)phenyl)benzyloxy)phenyl)-3-cyclopropylpropanoic acid or stereoisomer thereof] |
| 1000 to 10000 | COc1ccc(F)c(-c2ccc(COc3cccc(C(CC(=O)O)C4CC4)c3)cc2CN2CCCCCC2)c1 (single isomer, unassigned) [Example 66.73, (3S)-3-(3-(((2-(1-Azepanylmethyl)-2′-fluoro-5′-(methyloxy)-1,1′-biphenyl-4-yl)methyl)oxy)phenyl)-3-cyclopropylpropanoic acid or (3R)-3-(3-(((2-(1-azepanylmethyl)-2′-fluoro-5′-(methyloxy)-1,1′-biphenyl-4-yl)methyl)oxy)phenyl)-3-cyclopropylpropanoic acid] |
| 1000 to 10000 | CC(=O)c1cccc(-c2ccc(COc3cccc([C@@H](CC(=O)O)C4CC4)c3)cc2[C@H]2CCCC2(C)C)c1 (single isomer, unassigned) [Example 66.74, (S)-3-(3-((S)-3-((S)-2,2-Dimethylcyclopentyl)-4-(3-acetylphenyl)benzyloxy)phenyl)-3-cyclopropylpropanoic acid or stereoisomer thereof] |
| 1000 to 10000 | COc1ccc(F)c(-c2ccc(COc3cccc(C(CC(=O)O)C4CC4)c3)cc2CN2CCCC[C@@H]2C)c1 (single isomer, unassigned) [Example 66.75, (3S)-3-Cyclopropyl-3-(3-(((2′-fluoro-5′-(methyloxy)-2-(((2S)-2-methyl-1-piperidinyl)methyl)-1,1′-biphenyl-4-yl)methyl)oxy)phenyl)propanoic acid or (3R)-3-cyclopropyl-3-(3-(((2′-fluoro-5′-(methyloxy)-2-(((2S)-2-methyl-1-piperidinyl)methyl)-1,1′-biphenyl-4-yl)methyl)oxy)phenyl)propanoic acid] |
| 1000 to 10000 | CC(C)(O)c1cccc(-c2ccc(COc3cccc([C@@H](CC(=O)O)C4CC4)c3)cc2[C@H]2CCCC2(C)C)c1 (single isomer, unassigned) [Example 66.76, (S)-3-(3-((S)-3-((S)-2,2-dimethylcyclopentyl)-4-(3-(2-hydroxypropan-2-yl)phenyl)benzyloxy)phenyl)-3-cyclopropylpropanoic acid or stereoisomer thereof] |
| 100 to 1000 | CCCCCOc1cc(COc2cccc(C(CCC)CC(=O)O)c2)ccc1-c1cc(OC)ccc1F (single isomer, unassigned) [Example 67.1, (3R)-3-(3-(((2′-Fluoro-5′-(methyloxy)-2-(pentyloxy)-1,1′-biphenyl-4-yl)methyl)oxy)phenyl)hexanoic acid or (3S)-3-(3-(((2∝-fluoro-5′-(methyloxy)-2-(pentyloxy)-1,1′-biphenyl-4-yl)methyl)oxy)phenyl)hexanoic acid] |
| 100 to 1000 | CCCC(CC(=O)O)c1cccc(OCc2ccc(-c3cc(OC)ccc3F)c(C(C)(C)C)c2F)c1 (single isomer, unassigned) [Example 67.3, (3R)-3-(3-(((2-(1,1-Dimethylethyl)-2′,3-difluoro-5′-(methyloxy)-1,1′-biphenyl-4-yl)methyl)oxy)phenyl)hexanoic acid or (3S)-3-(3-(((2-(1,1-dimethylethyl)-2′,3-difluoro-5′-(methyloxy)-1,1′-biphenyl-4-yl)methyl)oxy)phenyl)hexanoic acid] |
| 100 to 1000 | CCCC(CC(=O)O)c1cccc(OCc2ccc(-c3cc(OC)ccc3F)c(/C=C/C(C)(C)C)c2)c1 (single isomer, unassigned) [Example 67.4, (3R)-3-(3-(((2-((1E)-3,3-Dimethyl-1-butenyl)-2′-fluoro-5′-(methyloxy)-1,1′-biphenyl-4-yl)methyl)oxy)phenyl)hexanoic acid or (3S)-3-(3-(((2-((1E)-3,3-dimethyl-1-butenyl)-2′-fluoro-5′-(methyloxy)-1,1′-biphenyl-4-yl)methyl)oxy)phenyl)hexanoic acid] |
| 100 to 1000 | CCCC(CC(=O)O)c1cccc(OCc2ccc(-c3cc(OC)ccc3F)c(C3=CCC(C)(C)CC3)c2)c1 (single isomer, unassigned) [Example 67.5, (3R)-3-(3-(((2-(4,4-Dimethyl-1-cyclohexen-1-yl)-2′-fluoro-5′-(methyloxy)-1,1′-biphenyl-4-yl)methyl)oxy)phenyl)hexanoic acid or (3S)-3-(3-(((2-(4,4-dimethyl-1-cyclohexen-1-yl)-2′-fluoro-5′-(methyloxy)-1,1′-biphenyl-4-yl)methyl)oxy)phenyl)hexanoic acid] |
